In test [1] the target is T1, human adenosine A3 receptor (Homo sapiens, UniProt P0DMS8).
T1 construct: expressed in transfected cells; host or cells: CHO-K1 cells, stably transfected
T1 sequence (P0DMS8 1-318): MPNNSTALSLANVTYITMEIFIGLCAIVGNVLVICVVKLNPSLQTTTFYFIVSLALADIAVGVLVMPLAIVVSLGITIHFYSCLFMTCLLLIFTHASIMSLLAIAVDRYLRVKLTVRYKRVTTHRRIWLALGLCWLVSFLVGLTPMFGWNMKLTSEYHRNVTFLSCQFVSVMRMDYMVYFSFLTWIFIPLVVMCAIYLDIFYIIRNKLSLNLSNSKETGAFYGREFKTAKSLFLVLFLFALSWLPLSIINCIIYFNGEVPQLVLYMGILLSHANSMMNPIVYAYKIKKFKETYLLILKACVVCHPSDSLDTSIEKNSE
The test can be described thus: Intracellular cAMP levels (inhibition of forskolin-stimulated cAMP production). The format is cell-based. Conditions: for EC50: CHO-K1 cells expressing human adenosine A3 receptor, forskolin 10 μM; for cAMP Efficacy (%): maximal response as percentage of the response produced by 100 nM IB-MECA. From the text: The method followed is that published in Yates L, Clark J H, Martin T J, James S, Broadley K J, Kidd E J. Radioligand binding and functional responses of ligands for human recombinant adenosine A3 receptors. Auton Autacoid Pharmacol. 2006 April; 26 (2): 191-200.
Materials and Cell Culture: Adenosine deaminase is obtained from Roche (Lewes, UK). Forskolin is obtained from Sigma-Aldrich (Poole, UK). The sources of other materials are provided above in Example 1. CHO-K1 cells stably transfected with the human adenosine A3 receptor are grown in Dulbecco's modified Eagles medium with nutrient mixture F12 containing NaHCO3 and Glutamax. Media is supplemented with 10% fetal calf serum, geneticin (G418; 0.67 mg/mL), hygromycin (500 μg/mL) and adenosine deaminase (1 U/mL). Cells are maintained at 37° C. with 5% CO2 in air.
CAMP Measurements: Intracellular cAMP production is measured directly using a non-acetylation cAMP enzyme immunoassay (Amersham Biosciences, Little Chalfont, UK). Cultured CHO cells expressing human adenosine A3 receptors are allowed to plate overnight in 96-well plates in culture medium containing adenosine deaminase. Twenty-four hours later, they are incubated with adenosine analogues or compounds of the invention (0.1 nM-1 μM) for 5 min at 37° C., followed by incubation with forskolin (10 μM) for 10 min. The cells are then lysed with 200 μL of lysis reagent 1 provided with the kit for 10 min to release intracellular CAMP. Aliquots of the supernatants are then transferred to a 96-well microtitre plate coated with donkey anti-rabbit IgG; 100-μL cAMP standards (12.5-3200 fmol/well) are also added to the microtitre plate; 100 μL of rabbit anti-cAMP antibody is added to all wells and incubated at 2-5° C. for 2 h. The antiserum is made up in lysis reagent 2, which sequesters the key component in lysis reagent 1 and ensures that CAMP is free for subsequent analysis. Then 50 μL of cAMP peroxidase conjugate is added to all wells and left to incubate for 60 min at 2-5° C. to allow competition for the antibody between the un-labelled and horse radish peroxidase (HRP)-labelled cAMP. Wells are then ished with buffer and 150 μL of enzyme substrate containing 3,3′,5,5′-tetramethylbenzidine/hydrogen peroxide in 20% (v/v) dimethylformamide is added to each well and left to incubate for 60 min on a Titramax 100 microtitre plate shaker (Heidolph Instruments, Schwabach, Germany) at room temperature for color development. The reaction is stopped by the addition of 100 μL of 1 M sulfuric acid and the optical density (OD) read at 450 nm on a spectrophotometric MRX microplate reader (Dynex Technologies, Chantilly, VA, USA).
Analyses: Each sample/standard was analyzed in duplicate and the resulting OD values averaged. The percent bound (B/B0) for each standard and sample was calculated using the following relationship:
[formula] • where B is the specific OD for standard/sample and B0 is the specific OD for the zero standard. A standard curve was generated by plotting % B/B0 as a function of the log fmol cAMP standard per well. The fmol per well value for cAMP in each sample was then read from the graph. The results are expressed as a percent of control agonist response: (measured response/control response)*100 in the presence of the compounds of the invention. Concentration-response curves for inhibition of cAMP production were constructed for all compounds of the invention and reference compounds. The EC50 values (concentration producing a half-maximal response) were determined by non-linear regression analysis of the concentration-response curves generated with mean replicate values using Hill equation curve fitting, according to the equation:
[formula] • where Y=response, A=left asymptote of the curve, D=right asymptote of the curve, C=compound concentration, and C50=EC50, and nH=slope factor. […]
A general note: Cyclic AMP is a second messenger, typically raised through Gs and lowered through Gi signalling.

Another test has as its target T2, human A3 receptors (Homo sapiens, UniProt P0DMS8).
T2 construct: expressed in transfected cells; host or cells: HEK-293 cells, stably transfected; membrane preparation
T2 sequence (P0DMS8 1-318): T1 sequence (P0DMS8 1-318)
The test can be described thus: Adenosine receptor binding assay ([3H]HEMADO competition). The settings on record: Cheng-Prusoff, read-out: hA3 Ki. From the text: Materials and Reference Compounds: [^3H] HEMADO (obtained from (ARC, Cat: ART1456) and [3H] DPCPX (obtained from PerkinElmer Cat no. NET974250UC)). IB-MECA was obtained from Tocris (Bristol, UK) and N6-cyclopentyl adenosine (CPA) is obtained from Sigma-Alrich (Poole, UK). Cell culture media, G418 and hygromycin are obtained from Invitrogen (Paisley, UK). Fetal calf serum is obtained from Perbio Science (Cheshire, UK). All other reagents are obtained from Fisher Chemicals (Loughborough, UK).
The method followed is that of Yates L, Clark J H, Martin T J, James S, Broadley K J, Kidd E J. Radioligand binding and functional responses of ligands for human recombinant adenosine A3 receptors. Auton Autacoid Pharmacol. 2006; 26 (2): 191-200. Cells stably transfected with the human adenosine A3 or A1 receptor are grown in Dulbecco's modified Eagles medium with nutrient mixture F12 containing NaHCO3 and Glutamax. Media is supplemented with 10% fetal calf serum, geneticin (G418; 0.67 mg/mL), hygromycin (500 μg/mL) and adenosine deaminase (1 U/mL). Cells are maintained at 37° C. with 5% CO2 in air. Cells are harvested and homogenized in ice-cold Tris buffer [50 mM Tris, 150 mM NaCl, 1 mM ethylenediaminetetraacetic acid (EDTA), pH 7.4] supplemented with the peptidase inhibitors, 4-(2-aminoethyl)benzene sulfonylfluoride (1 mM) and bacitracin (0.1 mg/mL), using a Polytron homogenizer (3×10 s bursts). The homogenate is spun for 10 min (4° C.) at 500 g. The supernatant is retained and the pellet is re-suspended in the buffer, homogenized and spun as above. The combined supernatants are centrifuged for 15 min (4° C.) at 48,000 g. The resultant pellet is re-suspended in the buffer and centrifuged for a second time at 48,000 g. The membrane pellet is then suspended in Tris buffer containing no peptidase inhibitors or adenosine deaminase and stored at −80° C. at a protein concentration of 1 mg/mL.
Binding Assays: Radioligand-binding assays are performed using the adenosine A3 receptor agonist [^3H] HEMADO and the A1 receptor […] [^3H] DPCPX. Binding assays are conducted in a total volume of 100 μL containing a 50 mM Tris, pH 7.4 buffer with or without 10 mM MgCl2, 20 μg membranes and either 4.154 nM [3H] HEMADO (for the A3 receptor) or 1.6065 nM [^3H] DPCPX (for the A1 receptor). Assays are conducted at room temperature for 60 min (A1 receptor) or 120 min (A3 receptor) and terminated by the addition of 2 ml of ice-coldish buffer (50 mM Tris, pH 7.4 with or without 10 mM MgCl2) and rapid filtration over 0.03% polyethylenimine-treated Whatman GF/C filters using a Brandel cell harvester (Semat International Ltd., St Albans, UK). Filters are then ished three times with 2 ml of ice-cold buffer. The filter-bound radioactivity are counted using a Compugamma counter (LKB Wallac, Turku, Finland). Competition experiments are performed to investigate the ability of reference compounds and embodiments of the invention to inhibit [^3H] HEMADO binding. Non-specific binding are determined using the respective compound at its highest concentration.
Data Analysis: The Kd and Bmax values for binding data are calculated based upon the molar amounts of bound and free [^3H] HEMADO. […] IC50 and Ki values and Hill slopes for inhibition of the radioligand binding by the compounds of the invention are calculated from the ligand competition curves using the Excel spreadsheet and the Kd value calculated for either [^3H] HEMADO or [^3H] DPCPX. The results are expressed as a percent of control specific binding and as a percent inhibition of control specific binding obtained in the presence of the compounds of the invention. The IC50 values (concentration causing a half-maximal inhibition of control specific binding) and Hill coefficients (nH) are determined by non-linear regression analysis of the competition curves generated with mean replicate values using Hill equation curve fitting: […]

[2] abbreviates: Table 2, # = average between two data points.
[3] abbreviates: Table 1, membranes of HEK-293 cells expressing human A3 receptor.

Where two headings read alike, the source gives them in different places.

Usually EC50 stands for the concentration needed to bring the measured effect to its halfway point. Low values mean greater potency, high ones weaker potency. In general, Ki refers to the dissociation constant of the complex between target and ligand, obtained from inhibition or displacement. Take `Cc1cc2c(Cl)nc3c(ncn3[C@H]3[C@H](O)[C@H](O)[C@]4(C#N)C[C@H]34)c2[nH]1` [26A*]: in test [1] (setting [2]), the EC50 was 100 nM and the “cAMP Efficacy (%)” value turned out to be 5%. The Ki at human A3 receptors (Table 2, membranes of HEK-293 cells expressing human A3 receptor) is 98 nM.

With `Cn1nnc([C@@]23C[C@@H]2[C@@H](n2cnc4c5[nH]c(C(F)F)cc5c(Cl)nc42)[C@H](O)[C@@H]3O)n1` [Compound 1B], in test [1] (Table 1), the EC50 was found to be 1 nM and the “cAMP Efficacy (%)” value is 5%. In addition, the Ki at human A3 receptors (setting [3]) worked out at 1.09 nM.

Regarding `Cc1cc2c(Cl)nc3c(ncn3[C@H]3[C@H](O)[C@H](O)[C@]4(c5ncn(C)n5)C[C@H]34)c2[nH]1` [Compound 2B], in test [1] (Table 1), the EC50 is 0.17 nM and the “cAMP Efficacy (%)” value amounted to 104%. In addition, the Ki at human A3 receptors (setting [3]) was determined as 1.24 nM.

In the case of `Cc1nc2c(Cl)nc3c(ncn3[C@H]3[C@H](O)[C@H](O)[C@]4(c5nnn(C)n5)C[C@H]34)c2[nH]1` [Compound 3B], in test [1] (Table 1), the EC50 amounted to 1 nM and the “cAMP Efficacy (%)” value is 31.72%. At human A3 receptors (setting [3]), the Ki is 1.27 nM.

For `Cn1nnc([C@@]23C[C@@H]2[C@@H](n2cnc4c5[nH]c(C=O)cc5c(Cl)nc42)[C@H](O)[C@@H]3O)n1` [Compound 4B], in test [1] (Table 1), a half-maximal effect (EC50) was put at 100 nM and the “cAMP Efficacy (%)” value is 10%. Also, the Ki on human A3 receptors (setting [3]) amounted to 2.72 nM.

On to `Cn1nnc([C@@]23C[C@@H]2[C@@H](n2cnc4c5[nH]c(CO)cc5c(Cl)nc42)[C@H](O)[C@@H]3O)n1` [Compound 5B], for which, in test [1] (Table 1), a half-maximal effect (EC50) was put at 3 nM and the “cAMP Efficacy (%)” value was determined as 34.29%. The Ki at human A3 receptors (setting [3]) stood at 2.83 nM.

Regarding `Cc1cc2c(Cl)nc3c(ncn3[C@H]3[C@H](O)[C@H](O)[C@]4(c5ncc[nH]5)C[C@H]34)c2[nH]1` [Compound 6B], in test [1] (Table 1), the EC50 is 0.14 nM and the “cAMP Efficacy (%)” value came to 105.39%. Further, at human A3 receptors (setting [3]), the Ki was 6.36 nM.

For the compound `N#Cc1cc(NCc2cc(Cl)ccc2Cl)c2ncn([C@H]3[C@H](O)[C@H](O)[C@]4(c5ncc[nH]5)C[C@H]34)c2n1` [Compound 8B], in test [1] (Table 1), the EC50 is 1.87 nM and the “cAMP Efficacy (%)” value was 104.81%. On human A3 receptors (setting [3]), the Ki turned out to be 12.1 nM.

Regarding `O[C@H]1[C@H](n2cnc3c(NCc4cc(Cl)ccc4Cl)cc(Cl)nc32)[C@H]2C[C@@]2(c2ncc[nH]2)[C@H]1O` [Compound 9B], in test [1] (Table 1), a half-maximal effect (EC50) was put at 4.61 nM and the “cAMP Efficacy (%)” value worked out at 103.89%. Also, the Ki on human A3 receptors (setting [3]) was found to be 38.6 nM.

For the compound `CCNc1cc(Cl)nc2c1ncn2[C@H]1[C@H](O)[C@H](O)[C@]2(c3ncco3)C[C@H]12` [Compound 10B], in test [1] (Table 1), a half-maximal response (EC50) required 16.1 nM and the “cAMP Efficacy (%)” value is 70.12%. Also, at human A3 receptors (setting [3]), the Ki was 41 nM.

Turning to `CCNc1cc(Cl)nc2c1ncn2[C@H]1[C@H](O)[C@H](O)[C@]2(c3ncc[nH]3)C[C@H]12` [Compound 12B], in test [1] (Table 1), the EC50 was 5.5 nM and the “cAMP Efficacy (%)” value came to 107.37%. Moreover, the Ki on human A3 receptors (setting [3]) is 31.2 nM.

Turning to `CCNc1cc(Cl)nc2c1ncn2[C@H]1[C@H](O)[C@H](O)[C@]2(c3nnn(C)n3)C[C@H]12` [Compound 13B], the “cAMP Efficacy (%)” value in test [1] (Table 1) was found to be 2%. Further, on human A3 receptors (setting [3]), the Ki was 2.1 nM.

Consider `O[C@H]1[C@H](n2cnc3c(NCC(F)F)cc(Cl)nc32)[C@H]2C[C@@]2(c2ncn[nH]2)[C@H]1O` [Compound 14B], for which, in test [1] (Table 1), a half-maximal effect (EC50) was put at 27.2 nM and the “cAMP Efficacy (%)” value stood at 89.97%. Besides, the Ki on human A3 receptors (setting [3]) came to 21.7 nM.

(Values after US20260008805A1, “ADENOSINE ANALOGS FOR THE TREATMENT OF DISEASE” (BIOINTERVENE, INC., priority 2022, published 2026).)
